Test results from ChEMBL document CHEMBL4000149, “The effect of glycine replacement with flexible ω-amino acids on the antimicrobial and haemolytic activity of an amphipathic cyclic heptapeptide” (Eur J Med Chem, 2015).
Values after ≈ are worked out from the molar mass of the structure shown. Numbered stars: 1 amine (or outer) side, 2 acyl side, 3 side chain; on linkers, the order of the positions; unused ones are H or OH. Bridge positions count the residues as written; N and C are the ends. Square brackets hold non-standard residues; d marks the D form. Peptide text beside a SMILES is read from it. ξ: configuration not given here. Dip = N[C@H](C(=O)O)C(c1ccccc1)c1ccccc1; NH(CH2)9CO = O=C(CCCCCCCCCN[*:1])[*:2]; 2Nal = N[C@@H](Cc1ccc2ccccc2c1)C(=O)O; Cha = N[C@@H](CC1CCCCC1)C(=O)O; X1 = NC(CCN[*:2])C(=O)[*:1]; ξAoc(2) = CCCCCCC(N)C(=O)O; ξNle = CCCCC(N)C(=O)O; Aoc = NCCCCCCCC(=O)O; ξDab = NCCC(N)C(=O)O

Legend:
[1] = test system: Candida albicans; assay: Antifungal activity against Candida albicans ATCC 200955 by tube dilution method; type: functional
[2] = test system: Pseudomonas aeruginosa; assay: Antimicrobial activity against Pseudomonas aeruginosa ATCC 27853 by tube dilution method; type: functional
[3] = test system: Klebsiella pneumoniae; assay: Antimicrobial activity against multidrug-resistant Klebsiella pneumoniae ATCC 700603 by tube dilution method; type: functional
[4] = Toxicity in human erythrocytes assessed as hemolysis after 1 hr; type: cell-based, Erythrocyte
[5] = test system: Staphylococcus aureus; assay: Antimicrobial activity against methicillin-resistant Staphylococcus aureus ATCC 33591 by tube dilution method; type: functional
[6] = test system: Enterococcus faecium; assay: Antimicrobial activity against vancomycin-resistant Enterococcus faecium ATCC 700221 by tube dilution method; type: functional
[7] = Toxicity in human erythrocytes assessed as hemolysis at 150 uM after 1 hr; type: cell-based, Erythrocyte; conditions: read-out: Activity
[8] = test system: Escherichia coli; assay: Antimicrobial activity against Escherichia coli ATCC 25922 by tube dilution method; type: functional
[9] = test system: Acinetobacter baumannii; assay: Antimicrobial activity against multidrug-resistant Acinetobacter baumannii ATCC BAA-1605 by tube dilution method; type: functional

| SMILES | MIC [1] | MIC [2] | MIC [3] | EC50 at 1 hr [4] | MIC [5] | MIC [6] | hemolysis at 1 h, 150 µM [7] | MIC [8] | MIC [9] |
| --- | --- | --- | --- | --- | --- | --- | --- | --- | --- |
| CC(C)C[C@@H]1NC(=O)CCCCCCCNC(=O)[C@H](Cc2ccc3ccccc3c2)NC(=O)[C@H](CCCNC(=N)N)NC(=O)[C@H](CC(C)C)NC(=O)[C@H](Cc2ccc3ccccc3c2)NC(=O)[C@H](CCCNC(=N)N)NC1=O (cyclo([2Nal][Aoc]LR[2Nal]LR)) | 4 µM (≈ 4.3 µg/mL) | 32 µM (≈ 34.4 µg/mL) | 16 µM (≈ 17.2 µg/mL) | 22 µM | 2 µM (≈ 2.15 µg/mL) | 2 µM (≈ 2.15 µg/mL) | 100% | 16 µM (≈ 17.2 µg/mL) | 8 µM (≈ 8.6 µg/mL) |
| CCCCCCC1NC(=O)CNC(=O)[C@H](Cc2ccc3ccccc3c2)NC(=O)[C@H](CCCNC(=N)N)NC(=O)[C@H](CC(C)C)NC(=O)[C@H](Cc2ccc3ccccc3c2)NC(=O)[C@H](CCCNC(=N)N)NC1=O (stereo partly specified) (cyclo([2Nal]G[ξAoc(2)]R[2Nal]LR)) | 64 µM (≈ 65.2 µg/mL) | 128 µM (≈ 130 µg/mL) | 64 µM (≈ 65.2 µg/mL) | 55 µM | 32 µM (≈ 32.6 µg/mL) | 32 µM (≈ 32.6 µg/mL) | 100% | 32 µM (≈ 32.6 µg/mL) | 128 µM (≈ 130 µg/mL) |
| CCCCC1NC(=O)[C@H](Cc2ccc3ccccc3c2)NC(=O)[C@H](CCCNC(=N)N)NC(=O)[C@H](CC(C)C)NC(=O)CNC(=O)[C@H](Cc2ccc3ccccc3c2)NC(=O)[C@H](CCCNC(=N)N)NC1=O (stereo partly specified) (cyclo([2Nal]GLR[2Nal][ξNle]R)) | > 128 µM | > 128 µM | > 128 µM | > 150 µM | 32 µM (≈ 31.7 µg/mL) | 16 µM (≈ 15.8 µg/mL) | 35% | > 128 µM | > 128 µM |
| CC(C)C[C@@H]1NC(=O)CNC(=O)[C@H](Cc2ccc3ccccc3c2)NC(=O)[C@H](CCCCN)NC(=O)[C@H](CC(C)C)NC(=O)[C@H](Cc2ccc3ccccc3c2)NC(=O)[C@H](CCCCN)NC1=O (cyclo([2Nal]GLK[2Nal]LK)) | 64 µM (≈ 59.8 µg/mL) | 128 µM (≈ 120 µg/mL) | > 128 µM | > 150 µM | 32 µM (≈ 29.9 µg/mL) | 16 µM (≈ 14.9 µg/mL) | 13% | 128 µM (≈ 120 µg/mL) | > 128 µM |
| CC(C)C[C@@H]1NC(=O)CNC(=O)[C@H](Cc2ccc3ccccc3c2)NC(=O)[C@H](CCCNC(=N)N)NC(=O)[C@@H]2CCCN2C(=O)[C@H](Cc2ccc3ccccc3c2)NC(=O)[C@H](CCCNC(=N)N)NC1=O (cyclo([2Nal]GLR[2Nal]PR)) | 128 µM (≈ 125 µg/mL) | > 128 µM | > 128 µM | > 150 µM | 64 µM (≈ 62.3 µg/mL) | 32 µM (≈ 31.2 µg/mL) | < 8% | > 128 µM | > 128 µM |
| CC(C)C[C@@H]1NC(=O)CNC(=O)[C@H](Cc2ccc3ccccc3c2)NC(=O)[C@H](CCCNC(=N)N)NC(=O)[C@H](CC(C)C)NC(=O)[C@H](Cc2ccc3ccccc3c2)NC(=O)[C@H](CCCNC(=N)N)NC1=O | 16 µM (≈ 15.8 µg/mL) | 64 µM (≈ 63.4 µg/mL) | 128 µM (≈ 127 µg/mL) | 215 µM | 8 µM (≈ 7.92 µg/mL) | 8 µM (≈ 7.92 µg/mL) | 27% | 32 µM (≈ 31.7 µg/mL) | 128 µM (≈ 127 µg/mL) |
| CC(C)C[C@@H]1NC(=O)CNC(=O)[C@H](Cc2ccc3ccccc3c2)NC(=O)[C@H](CCCNC(=N)N)NC(=O)[C@H](CC(C)C)NC(=O)[C@H](Cc2ccc3ccccc3c2)NC(=O)[C@H](CCCCN)NC1=O (cyclo([2Nal]GLK[2Nal]LR)) | 32 µM (≈ 30.8 µg/mL) | 128 µM (≈ 123 µg/mL) | > 128 µM | > 150 µM | 32 µM (≈ 30.8 µg/mL) | 16 µM (≈ 15.4 µg/mL) | 14% | 128 µM (≈ 123 µg/mL) | > 128 µM |
| CC(C)C[C@@H]1NC(=O)[C@H](Cc2ccc3ccccc3c2)NC(=O)[C@H](CCCNC(=N)N)NC(=O)[C@H](CC2CCCCC2)NC(=O)CNC(=O)[C@H](Cc2ccc3ccccc3c2)NC(=O)[C@H](CCCNC(=N)N)NC1=O (cyclo([2Nal]G[Cha]R[2Nal]LR)) | 32 µM (≈ 33 µg/mL) | 128 µM (≈ 132 µg/mL) | 128 µM (≈ 132 µg/mL) | 28 µM | 16 µM (≈ 16.5 µg/mL) | 16 µM (≈ 16.5 µg/mL) | 99% | 32 µM (≈ 33 µg/mL) | 64 µM (≈ 65.9 µg/mL) |
| CC(C)C[C@@H]1NC(=O)CCCCCCCCCNC(=O)[C@H](Cc2ccc3ccccc3c2)NC(=O)[C@H](CCCNC(=N)N)NC(=O)[C@H](CC(C)C)NC(=O)[C@H](Cc2ccc3ccccc3c2)NC(=O)[C@H](CCCNC(=N)N)NC1=O (cyclo([2Nal]LR[2Nal][NH(CH2)9CO]LR)) | 16 µM (≈ 17.6 µg/mL) | > 64 µM | > 64 µM | 15 µM | 4 µM (≈ 4.41 µg/mL) | 4 µM (≈ 4.41 µg/mL) | 100% | 64 µM (≈ 70.6 µg/mL) | 16 µM (≈ 17.6 µg/mL) |
| CC(C)C[C@@H]1NC(=O)CNC(=O)[C@H](Cc2c[nH]c3ccccc23)NC(=O)[C@H](CCCNC(=N)N)NC(=O)[C@H](CC(C)C)NC(=O)[C@H](Cc2c[nH]c3ccccc23)NC(=O)[C@H](CCCNC(=N)N)NC1=O (cyclo(GLRWLRW)) | > 128 µM | > 128 µM | > 128 µM | > 150 µM | 128 µM (≈ 124 µg/mL) | 64 µM (≈ 62 µg/mL) | < 8% | > 128 µM | > 128 µM |
| CC(C)C[C@@H]1NC(=O)[C@H](Cc2ccc3ccccc3c2)NC(=O)[C@H](CCCNC(=N)N)NC(=O)[C@H](CC(C)C)NC(=O)[C@@H](N)CCCCNC(=O)[C@H](Cc2ccc3ccccc3c2)NC(=O)[C@H](CCCNC(=N)N)NC1=O (H-KLR[2Nal]LR[2Nal]; lactam 1-C) | 8 µM (≈ 8.49 µg/mL) | 32 µM (≈ 34 µg/mL) | 32 µM (≈ 34 µg/mL) | 150 µM | 8 µM (≈ 8.49 µg/mL) | 4 µM (≈ 4.25 µg/mL) | 51% | 32 µM (≈ 34 µg/mL) | 32 µM (≈ 34 µg/mL) |
| CC(C)C[C@@H]1NC(=O)CNC(=O)[C@H](Cc2ccc3ccccc3c2)NC(=O)[C@H](CCCCN)NC(=O)[C@H](CC(C)C)NC(=O)[C@H](Cc2ccc3ccccc3c2)NC(=O)[C@H](CCCNC(=N)N)NC1=O (cyclo([2Nal]GLR[2Nal]LK)) | 32 µM (≈ 30.8 µg/mL) | 128 µM (≈ 123 µg/mL) | > 128 µM | > 150 µM | 32 µM (≈ 30.8 µg/mL) | 16 µM (≈ 15.4 µg/mL) | 19% | 128 µM (≈ 123 µg/mL) | > 128 µM |
| CC(C)C[C@@H]1NC(=O)C(N)CCNC(=O)C(N)CCNC(=O)[C@H](Cc2ccc3ccccc3c2)NC(=O)[C@H](CCCNC(=N)N)NC(=O)[C@H](CC(C)C)NC(=O)[C@H](Cc2ccc3ccccc3c2)NC(=O)[C@H](CCCNC(=N)N)NC1=O (stereo partly specified) (H-[ξDab]LR[2Nal]LR[2Nal]; linker 1-C via X1) | 16 µM (≈ 18.1 µg/mL) | 32 µM (≈ 36.3 µg/mL) | 128 µM (≈ 145 µg/mL) | > 450 µM | 16 µM (≈ 18.1 µg/mL) | 8 µM (≈ 9.07 µg/mL) | < 8% | 32 µM (≈ 36.3 µg/mL) | 128 µM (≈ 145 µg/mL) |
| CC(C)C[C@@H]1NC(=O)CNC(=O)[C@H](C(c2ccccc2)c2ccccc2)NC(=O)[C@H](CCCNC(=N)N)NC(=O)[C@H](CC(C)C)NC(=O)[C@H](C(c2ccccc2)c2ccccc2)NC(=O)[C@H](CCCNC(=N)N)NC1=O (cyclo([Dip]GLR[Dip]LR)) | 64 µM (≈ 66.7 µg/mL) | > 128 µM | 128 µM (≈ 133 µg/mL) | 145 µM | 16 µM (≈ 16.7 µg/mL) | 16 µM (≈ 16.7 µg/mL) | 54% | 64 µM (≈ 66.7 µg/mL) | 64 µM (≈ 66.7 µg/mL) |
